{
  "source": "patent US7148249B2",
  "about": "“Indolinones substituted by heterocycles, the preparation thereof and their use as medicaments” (Boehringer Ingelheim Pharma GmbH & Co. KG, priority 2002, dated 2006)",
  "data": [
    {"test_system": "Human umbilical endothelial cells (HUVEC)", "assay": "Inhibition of VEGF165-stimulated HUVEC proliferation (3H-thymidine incorporation)", "format": "cell-based", "settings": "HUVEC proliferation stimulated with 5 ng/ml VEGF165 and 10 μg/ml heparin; 76 h incubation + 16 h 3H-thymidine", "procedure": "(§1) Human umbilical endothelial cells (HUVEC) were cultivated in IMDM (Gibco BRL), supplemented with 10% foetal calf serum (FBS) (Sigma), 50 μM of β-mercaptoethanol (Fluka), standard antibiotics, 15 μg/ml of endothelial cell growth factor (ECGS, Collaborative Biomedical Products) and 100 μg/ml of heparin (Sigma) on gelatine-coated culture dishes (0.2% gelatine, Sigma) at 37° C., under 5% CO2 in a water-saturated atmosphere.\n(§2) In order to investigate the inhibitory activity of the compounds according to the invention the cells were “starved” for 16 hours, i.e. kept in culture medium without growth factors (ECGS+heparin). The cells were detached from the culture dishes using trypsin/EDTA and washed once in serum-containing medium. Then they were seeded out in amounts of 2.5×10^3 cells per well.\n(§3) The proliferation of the cells was stimulated with 5 ng/ml of VEGF165 (vascular endothelial growth factor; H. Weich, GBF Braunschweig) and 10 μg/ml of heparin. As a control, 6 wells in each dish were not stimulated.\n(§4) The compounds according to the invention were dissolved in 100% dimethylsulphoxide and added to the cultures in various dilutions as triple measurements, the maximum dimethylsulphoxide concentration being 0.3%.\n(§5) The cells were incubated for 76 hours at 37° C., then for a further 16 hours ^3H-thymidine (0.1 μCi/well, Amersham) was added in order to determine the DNA synthesis. Then the radioactively labelled cells were immobilised on filter mats and the radioactivity incorporated was measured in a β-counter. In order to determine the inhibitory activity of the compounds according to the invention the mean value of the non-stimulated cells was subtracted from the mean value of the factor-stimulated cells (in the presence or absence of the compounds according to the invention).\n(§6) The relative cell proliferation was calculated as a percentage of the control (HUVEC without inhibitor) and the concentration of active substance which inhibits the proliferation of the cells by 50% (IC50) was determined.", "units": {"IC50": "nM"}, "values": [
      {"compound": "3-(Z)-{1-(4-[N-acetyl-N-(2-dimethylaminoethyl)-amino]-phenylamino)-1-(3,4-(difluoromethylenedioxy)phenyl)-methylene}-6-chloro-2-indolinone [(al)]", "IC50": 83},
      {"compound": "Cn1cnc2cc(/C(Nc3ccc(N4CCCC4=O)cc3)=C3/C(=O)Nc4cc(F)ccc43)ccc21", "note": "[(as), 3-(Z)-{1-[4-(pyrrolid-2-on-1-yl)-phenylamino]-1-(1-methyl-benzimidazol-5-yl)-methylene}-6-fluoro-2-indolinone]", "IC50": 18},
      {"compound": "CN(C)CCN(c1ccc(N/C(=C2\\C(=O)Nc3cc(Cl)ccc32)c2ccc3c(c2)OCCO3)cc1Cl)S(C)(=O)=O", "note": "[(ba), 6-chloro-3-(Z)-[1-(4-{N-(2-dimethylamino-ethyl)-N-methanesulphonyl-amino}-3-chloro-phenylamino)-1-(1,2-ethylenedioxyphen-4-yl)-methylene]-2-indolinone]", "IC50": 30},
      {"compound": "COc1cc(N/C(=C2\\C(=O)Nc3cc(Cl)ccc32)c2ccc3c(c2)OCCO3)ccc1N(C)C(=O)CN(C)C", "note": "[(bb), 6-chloro-3-(Z)-{1-[4-(N-dimethylaminomethylcarbonyl-N-methyl-amino)-3-methoxy-phenylamino]-1-(1,2-ethylenedioxyphen-4-yl)-methylene}-2-indolinone]", "IC50": 33},
      {"compound": "COc1cc(N/C(=C2\\C(=O)Nc3cc(F)ccc32)c2ccc3c(c2)OCCO3)ccc1N(C)C(=O)CN(C)C", "note": "[(bc), 6-fluoro-3-(Z)-{1-[4-(N-dimethylaminomethylcarbonyl-N-methyl-amino)-3-methoxy-phenylamino]-1-(1,2-ethylenedioxyphen-4-yl)-methylene}-2-indolinone]", "IC50": 5},
      {"compound": "CN(C)CCN(c1ccc(N/C(=C2\\C(=O)Nc3cc(F)ccc32)c2ccc3c(c2)OCCO3)cc1Cl)S(C)(=O)=O", "note": "[(bd), 6-fluoro-3-(Z)-[1-(4-{N-(2-dimethylamino-ethyl)-N-methanesulphonyl-amino}-3-chloro-phenylamino)-1-(1,2-ethylenedioxyphen-4-yl)-methylene]-2-indolinone]", "IC50": 5}
    ]},
    {"test_system": "Human umbilical endothelial cells (HUVEC)", "assay": "Inhibition of VEGF165-stimulated HUVEC proliferation (3H-thymidine incorporation)", "format": "cell-based", "settings": "Homo sapiens; HUVEC proliferation stimulated with 5 ng/ml VEGF165 and 10 μg/ml heparin; 76 h incubation + 16 h 3H-thymidine", "procedure": "as §1, §2, §3, §4, §5, §6", "units": {"IC50": "nM"}, "values": [
      {"compound": "CN(C)Cc1ccc(N/C(=C2\\C(=O)Nc3cc(Cl)ccc32)c2ccc3c(c2)OCO3)cc1", "note": "[(a), 3-(Z)-{1-[4-(dimethylaminomethyl)-phenylamino]-1-(3,4-methylenedioxyphenyl)-methylene}-6-chloro-2-indolinone]", "IC50": 11},
      {"compound": "CCC(=O)N(CCN(C)C)c1ccc(N/C(=C2\\C(=O)Nc3cc(F)ccc32)c2ccc3c(c2)OCCO3)cc1", "note": "[(aa), 3-(Z)-{1-(4-[N-propionyl-N-(2-dimethylaminoethyl)-amino]-phenylamino)-1-(3,4-ethylenedioxyphenyl)-methylene}-6-fluoro-2-indolinone]", "IC50": 0.6},
      {"compound": "CN(C)CCN(c1ccc(N/C(=C2\\C(=O)Nc3cc(F)ccc32)c2ccc3c(c2)OCCO3)cc1)S(C)(=O)=O", "note": "[(ab), 3-(Z)-{1-(4-[N-methanesulphonyl-N-(2-dimethylaminoethyl)-amino]-phenylamino)-1-(3,4-ethylenedioxyphenyl)-methylene}-6-fluoro-2-indolinone]", "IC50": 1},
      {"compound": "COC(=O)c1ccc2c(c1)NC(=O)/C2=C(\\Nc1ccc(N(CCN(C)C)C(C)=O)cc1)c1ccc2c(c1)OCCO2", "note": "[(ac), 3-(Z)-{1-(4-[N-acetyl-N-(2-dimethylaminoethyl)-amino]-phenylamino)-1-(3,4-ethylenedioxyphenyl)-methylene}-6-methoxycarbonyl-2-indolinone]", "IC50": 0.2},
      {"compound": "COC(=O)c1ccc2c(c1)NC(=O)/C2=C(\\Nc1ccc(C(=O)N(C)CCN(C)C)cc1)c1ccc2c(c1)OCCO2", "note": "[(ad), 3-(Z)-{1-(4-[N-methyl-N-(2-dimethylaminoethyl)aminocarbonyl]-phenylamino)-1-(3,4-ethylenedioxyphenyl)-methylene}-6-methoxycarbonyl-2-indolinone]", "IC50": 0.4},
      {"compound": "COC(=O)c1ccc2c(c1)NC(=O)/C2=C(\\Nc1ccc(C(=O)N(C)CCCN(C)C)cc1)c1ccc2c(c1)OCCO2", "note": "[(ae), 3-(Z)-{1-(4-[N-methyl-N-(3-dimethylaminopropyl)aminocarbonyl]-phenylamino)-1-(3,4-ethylenedioxyphenyl)-methylene}-6-methoxycarbonyl-2-indolinone]", "IC50": 0.5},
      {"compound": "COC(=O)c1ccc2c(c1)NC(=O)/C2=C(\\Nc1ccc(C(=O)N(C)CCN(C)C)cc1)c1ccc2c(c1)OCO2", "note": "[(af), 3-(Z)-{1-(4-[N-methyl-N-(2-dimethylaminoethyl)aminocarbonyl]-phenylamino)-1-(3,4-methylenedioxyphenyl)-methylene}-6-methoxycarbonyl-2-indolinone]", "IC50": 0.5},
      {"compound": "CN1CCN(Cc2ccc(N/C(=C3\\C(=O)Nc4cc(C(=O)N(C)C)ccc43)c3ccc4c(c3)OCCO4)cc2)CC1", "note": "[(ah), 3-(Z)-{1-(4-[1-methyl-piperazin-4-yl-methyl]-phenylamino)-1-(3,4-ethylenedioxy-phenyl)-methylene}-6-dimethylaminocarbonyl-2-indolinone]", "IC50": 100},
      {"compound": "CN1CCC(N(C)C(=O)c2ccc(N/C(=C3\\C(=O)Nc4cc(F)ccc43)c3ccc4c(c3)OCCO4)cc2)CC1", "note": "[(am), 3-(Z)-{1-(4-[N-methyl-N-(1-methyl-4-piperidinyl)-aminocarbonyl]-phenylamino)-1-(3,4-ethylenedioxyphenyl)-methylene}-6-fluoro-2-indolinone]", "IC50": 5},
      {"compound": "CN(C)CC(=O)N(C)c1ccc(N/C(=C2\\C(=O)Nc3ccccc32)c2ccoc2)cc1", "note": "[(an), 3-(Z)-{1-(4-[N-methyl-N-(dimethylaminomethylcarbonyl)-amino]-phenylamino)-1-(3-furyl)-methylene}-2-indolinone]", "IC50": 58},
      {"compound": "CN(C)CCN(C(=O)c1cccnc1)c1ccc(N/C(=C2\\C(=O)Nc3cc(Cl)ccc32)c2ccc3c(c2)OCO3)cc1", "note": "[(ao), 3-(Z)-{1-(4-[N-(3-pyridylcarbonyl)-N-(2-dimethylaminoethyl)-amino]-phenyl-amino)-1-(3,4-methylenedioxyphenyl)-methylene}-6-chloro-2-indolinone]", "IC50": 6},
      {"compound": "CCN(CC)CCS(=O)(=O)c1ccc(N/C(=C2\\C(=O)Nc3cc(Cl)ccc32)c2ccc3c(c2)OCO3)cc1", "note": "[(ap), 3-(Z)-{1-(4-[2-(diethylamino)ethyl-sulphonyl]-phenylamino)-1-(3,4-methylenedioxyphenyl)-methylene}-6-chloro-2-indolinone]", "IC50": 120},
      {"compound": "CN(C)Cc1ccc(N/C(=C2\\C(=O)Nc3ccccc32)c2ccc3c(c2)ncn3C)cc1", "note": "[(aq), 3-(Z)-{1-[4-(dimethylaminomethyl)-phenylamino]-1-(1-methyl-benzimidazol-5-yl)-methylene}-2-indolinone]", "IC50": 24},
      {"compound": "Cn1ccnc1-c1ccc(N/C(=C2\\C(=O)Nc3cc(Cl)ccc32)c2ccc3nccnc3c2)cc1", "note": "[(ar), 3-(Z)-{1-(4-[1-methylimidazol-2-yl]-phenylamino)-1-(quinoxalin-6-yl)-methylene}-6-chloro-2-indolinone]", "IC50": 71},
      {"compound": "Cc1cc(C)n(-c2ccc(N/C(=C3\\C(=O)Nc4cc(F)ccc43)c3ccc4c(c3)ncn4C)cc2)n1", "note": "[(at), 3-(Z)-{1-[4-(3,5-dimethyl-pyrazol-1-yl)-phenylamino]-1-(1-methyl-benzimidazol-5-yl)-methylene}-6-fluoro-2-indolinone]", "IC50": 30},
      {"compound": "CN(C)CCN(C)S(=O)(=O)c1ccc(N/C(=C2\\C(=O)Nc3cc(F)ccc32)c2ccc3c(c2)ncn3C)cc1", "note": "[(au), 3-(Z)-{1-[4-(N-methyl-N-{2-dimethylamino-ethyl}-aminosulphonyl)-phenylamino]-1-(1-methyl-benzimidazol-5-yl)-methylene}-6-fluoro-2-indolinone]", "IC50": 13},
      {"compound": "CN(C)Cc1ccc(N/C(=C2\\C(=O)Nc3ccccc32)c2ccc3c(c2)nnn3C)cc1", "note": "[(av), 3-(Z)-{1-[4-(dimethylaminomethyl)-phenylamino]-1-(1-methyl-benzotriazol-5-yl)-methylene}-2-indolinone]", "IC50": 94},
      {"compound": "CN1CCN(C(=O)Cc2ccc(N/C(=C3\\C(=O)Nc4cc(F)ccc43)c3ccc4c(c3)OCCO4)cc2)CC1", "note": "[(aw), 3-(Z)-{1-(4-[(1-methyl-piperazin-4-yl)-carbonylmethyl]-phenylamino)-1-(3,4-ethylenedioxyphenyl)-methylene}-6-fluoro-2-indolinone]", "IC50": 4},
      {"compound": "CN1CCN(CC(=O)N(C)c2ccc(N/C(=C3\\C(=O)Nc4cc(Cl)ccc43)c3ccc4c(c3)OCO4)cc2)CC1", "note": "[(az), 3-(Z)-{1-(4-[N-methyl-N-(4-methylpiperazin-1-yl-methylcarbonyl)-amino]-phenyl-amino)-1-(3,4-methylenedioxyphenyl)-methylene}-6-chloro-2-indolinone]", "IC50": 6},
      {"compound": "CN1CCN(CC(=O)N(C)c2ccc(N/C(=C3\\C(=O)Nc4cc(Cl)ccc43)c3ccc4nccnc4c3)cc2)CC1", "note": "[(b), 3-(Z)-{1-(4-[N-methyl-N-(4-methylpiperazin-1-yl-methylcarbonyl)-amino]-phenyl-amino)-1-(quinoxalin-6-yl)-methylene}-6-chloro-2-indolinone]", "IC50": 4}
    ]}
  ]
}
